Laboratory results as given in patent publication US7649007B2, “Oxazolidine derivatives as PR modulators” (Wyeth LLC, priority 2006, dated 2010).

Key:
[1] = target: T1, progesterone receptor (alkaline phosphatase activity in T47D cells) (Homo sapiens, UniProt P06401); assay: Effects of progestins and antiprogestins on alkaline phosphatase activity in T47D cells (antagonist mode); type: cell-based; conditions: in the presence of 1 nM progesterone; for IC50: 24 h
T1 construct: determining a compound's effect on alkaline phosphatase activity in T47D cells; endogenous in cells; host or cells: T47D cells
T1 sequence (P06401 1-933): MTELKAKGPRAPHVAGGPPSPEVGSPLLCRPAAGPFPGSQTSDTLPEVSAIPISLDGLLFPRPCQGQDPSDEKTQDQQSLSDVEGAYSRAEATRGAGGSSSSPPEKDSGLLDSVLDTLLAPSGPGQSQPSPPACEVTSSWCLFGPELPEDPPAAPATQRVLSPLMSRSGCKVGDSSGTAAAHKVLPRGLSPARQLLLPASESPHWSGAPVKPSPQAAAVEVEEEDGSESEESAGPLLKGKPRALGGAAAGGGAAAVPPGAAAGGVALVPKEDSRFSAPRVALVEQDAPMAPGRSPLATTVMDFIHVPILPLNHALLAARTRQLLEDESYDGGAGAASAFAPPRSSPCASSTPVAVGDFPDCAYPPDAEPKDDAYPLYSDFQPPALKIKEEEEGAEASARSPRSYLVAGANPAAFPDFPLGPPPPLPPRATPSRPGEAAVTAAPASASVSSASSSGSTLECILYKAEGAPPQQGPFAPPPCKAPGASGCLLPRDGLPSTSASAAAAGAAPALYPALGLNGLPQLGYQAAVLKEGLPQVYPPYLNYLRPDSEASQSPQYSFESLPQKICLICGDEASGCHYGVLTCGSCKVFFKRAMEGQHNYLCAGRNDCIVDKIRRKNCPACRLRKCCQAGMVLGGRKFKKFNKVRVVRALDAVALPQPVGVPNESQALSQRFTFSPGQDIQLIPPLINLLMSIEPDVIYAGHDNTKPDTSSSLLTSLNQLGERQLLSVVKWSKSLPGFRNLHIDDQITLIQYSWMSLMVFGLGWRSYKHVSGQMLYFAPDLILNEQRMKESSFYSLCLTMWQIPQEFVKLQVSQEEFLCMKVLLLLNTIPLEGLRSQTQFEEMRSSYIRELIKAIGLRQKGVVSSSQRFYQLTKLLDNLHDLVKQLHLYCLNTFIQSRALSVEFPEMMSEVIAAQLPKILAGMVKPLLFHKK
Procedure: (1) Effects of Progestins and Antiprogestins on Alkaline Phosphatase Activity in T47D Cells.
PURPOSE: To identify progestins or antiprogestins by determining a compound's effect on alkaline phosphatase activity in T47D cells.
Culture medium: • DMEM:F12 (1:1) (GIBCO, BRL) supplemented with 5% (v/v) charcoal stripped fetal bovine serum (not heat-inactivated), 100 U/mL penicillin, 100 μg/mL streptomycin, and 2 mM the GlutaMax™ reagent (GIBCO, BRL).
Alkaline phosphatase assay buffer: • I. 0.1M Tris-HCl, pH 9.8, containing 0.2% the Triton® X-100 reagent • II. 0.1M Tris-HCl, pH 9.8, containing 4 mM p-nitrophenyl phosphate (Sigma). B. Cell Culture and Treatment:
Frozen T47D cells were thawed in a 37° C. water bath and diluted to 280,000 cells/mL in culture medium. To each well in a 96-well plate (Falcon, Becton Dickinson Labware), 180 μL of diluted cell suspension was added.
Twenty μL of reference or test compounds diluted in the culture medium was then added to each well. When testing for progestin antagonist activity, reference antiprogestins or test compounds were added in the presence of 1 nM progesterone. The cells were incubated at 37° C. in a 5% CO2/humidified atmosphere for 24 h.
NOTE: For high throughput screening, one concentration of each compound was tested at 0.3 μg/mL. Based on an average molecular weight of 300 g/mol for the compounds in the library, the concentration was approximately 1 μM. Subsequently, active compounds were tested in dose response assays to determine EC50 and IC50. C. Alkaline Phosphatase Enzyme Assay:
At the end of treatment, the medium was removed from the plate. Fifty μL of assay buffer I was added to each well. The plates were shaken in a titer plate shaker for 15 min. Then 150 μL of assay buffer II was added to each well. Optical density measurements were taken at 5 min intervals for 30 min at a test wavelength of 405 nm.
For reference and test compounds, a dose response curve was generated for dose (X-axis) vs. the rate of enzyme reaction (slope) (Y-axis). Square root-transformed data was used for analysis of variance and nonlinear dose response curve fitting for both agonist and antagonist modes. Huber weighting was used to down-weight the effects of outliers. EC50 or IC50 values were calculated from the retransformed values. JMP software (SAS Institute, Inc.) was used for both one-way analysis of variance and non-linear dose response analysis in both single dose and dose response studies.
Progesterone and trimegestone were reference progestins and RU486 was the reference antiprogestin. All reference compounds were run in full dose response curves and the EC50 and IC50 values were calculated.

| Compound | melting point | inhibition at 3 µM ([1]; at 3000 nM) | IC50 [1] |
| --- | --- | --- | --- |
| CC1(C)COC(=O)N1c1nc(-c2cccc(C#N)c2)cs1 [Example 3, 3-[2-(4,4-dimethyl-2-oxo-1,3-oxazolidin-3-yl)-1,3-thiazol-4-yl]benzonitrile] | 181 to 183 °C |  |  |
| CCC1(CC)COC(=O)N1c1nc(-c2ccc(C#N)cc2)cs1 [Example 2, 4-[2-(4,4-Diethyl-2-oxo-1,3-oxazolidin-3-yl)-1,3-thiazol-4-yl]benzonitrile] | 145 to 147 °C |  |  |
| CC1(C)CO/C(=N\S(C)(=O)=O)N1c1nc(-c2ccc(C#N)cc2)cs1 [Example 6, N-{(2Z)-3-[4-(4-Cyanophenyl)-1,3-thiazol-2-yl]-4,4-dimethyl-1,3-oxazolidin-2-ylidene}methanesulfonamide] |  | 100% |  |
| CC(=O)/N=C1\OCC(C)(C)N1c1nc(-c2ccc(C#N)cc2)cs1 [Example 7, N-{(2Z)-3-[4-(4-Cyanophenyl)-1,3-thiazol-2-yl]-4,4-dimethyl-1,3-oxazolidin-2-ylidene}acetamide] |  |  | 10.8 nM |
| CC1(C)CO/C(=N\C#N)N1c1nc(-c2ccc(C#N)cc2)cs1 [Example 5, {(2Z)-3-[4-(4-cyanophenyl)-1,3-thiazol-2-yl]-4,4-dimethyl-1,3-oxazolidin-2-ylidene}cyanamide] |  |  | 64.4 nM |
| CC1(C)COC(=N)N1c1nc(-c2ccc(C#N)cc2)cs1 [Example 4, 4-[2-(2-imino-4,4-dimethyl-1,3-oxazolidin-3-yl)-1,3-thiazol-4-yl]benzonitrile] | 158 to 161 °C |  | 53.4 nM |
| C[C@@H]1COC(=O)N1c1nc(-c2ccc(Br)cc2)cs1 [Example 1, (4R)-3-[4-(4-Bromophenyl)-1,3-thiazol-2-yl]-4-methyl-1,3-oxazolidin-2-one] | 197 to 199 °C |  |  |
